Tested on: rat primary cortical cultures
Assay: Neuroprotective effect following exposure to glutamate (Example 12)
Type: cell-based
Details: glutamate 40 μM, 20 min, primary cortical neuron culture
Experimental: This study investigated the neuroprotective effect of the composition WEB-2 on rat primary cortical cultures following exposure to glutamate (40 μM, 20 min application), an in vitro AD model.
Pregnant Wistar females rat (JanvierLabs, France) at 15 days of gestation were killed by cervical dislocation. The foetuses were prepared as in example 11.
Once obtained, the cells were seeded at a density of 30,000 per well in 96-well plates precoated with poly-L-lysine (Batch: 3102256, Corning Biocoat) and were cultured at 37° C. in an air (95%)-CO2 (5%) incubator. The medium was changed every 2 days. The cortical neurons were intoxicated with glutamate solution.
On day 13 after culture, glutamate (Batch: 061M0030V, Sigma) was added into cell culture to a final concentration of 40 μM diluted in control medium for 20 min. After 20 min, the cells were washed-out and new fresh medium containing or not WEB-2 was added for 48 h additional time. […]
The immunolabeled cultures were automatically examined with ImageXpress equipped with a LED at ×20 magnification. For each condition (6 culture wells), 30 automatically fields per well (representing ˜80% of the total surface of the well) were analyzed. The total number of neurons and neurite length were automatically analyzed using MetaXpress software.

For N[C@@H](CCC(=O)O)C(=O)O [Glutamate, glutamate], which “neurite network loss induced” value is on record?
The value was “neurite network loss”.

And the neuronal death induced?
The neuronal death induced was “significant neuronal death”.
